Experimental data taken from patent US20240391923A1, “METHIONINE ADENOSYLTRANSFERASE 2A INHIBITOR FOR TREATING MTAP DELETION-TYPE CANCER” (SUZHOU GENHOUSE BIO CO., LTD., priority 2022, published 2024).
pIC50: −log10 of the molar value. Read-outs that look alike come from different tables or passages of the source.

Tests used:
[1] = test system: SDMA in human colon cancer cell line HCT116; assay: Cell symmetric dimethylarginine (SDMA) test, In-cell Western, HCT116 (MTAP wild-type); assay type: cell-based; conditions: Homo sapiens, HCT-116, 96 h
Excerpt: MAT2A catalyzes the reaction of L-methionine and ATP to generate SAM, inorganic phosphonic acid, and inorganic diphosphonic acid. SAM is an important methyl donor, and is a substrate of arginine methyltransferase 5 (PRMT5). PRMT5 catalyzes SDMA modification of multiple proteins within a cell. The intracellular SDMA modification level was detected by ICW (In-cell Western), and the inhibition of the test compound on the enzymatic activity of intracellular MAT2A was indirectly reflected.
In the present application, the human colon cancer cell line HCT116 and the corresponding HCT116-MTAP-knockout cell line were seeded into a 96-well cell culture plate at an appropriate cell density. After 24 h, the cells were treated using the test compounds diluted 1:4 fold at the highest concentration of 6 μM for 6 gradients, and a DMSO treatment group was set up separately. The cells were cultured in a 37° C./5% CO2 incubator for 4 days. To test the inhibitory activity of the test compounds against tumor cell SDMA, the medium was discarded, and the plate was washed 3 times with PBST. 4% paraformaldehyde was then used at room temperature for fixation for 20 min. The fixation solution was discarded, the plate was washed 3 times with PBST, and a special blocking solution was added to each well for blocking at room temperature for 2 h. The blocking solution was discarded. After the plate was washed 3 times with PBST, the plate was incubated with SDMA antibody at 4° C. overnight. The next day, the plate was washed 3 times with PBST. The secondary antibody and DRAQ5 were diluted to an appropriate concentration with the blocking solution, and incubated at room temperature for 2 h; the plate was washed 3 times with PBST, and the fluorescence signals at 700 nm and 800 nm were detected using a Li—COR Odyssey two-color near-infrared laser imager.
The data was then processed. After the corresponding background value was subtracted from each well, statistical analysis was performed on the 800 nm/700 nm ratio for each well, a sigmoidal dose-inhibition curve was plotted using a non-linear regression model, and IC50 values were fitted and calculated. Inhibition Rate (%)=(1−SDMA dose/SDMA DMSO control)*100. SDMA dose is the value of the drug treatment group, and SDMA DMSO control is the value of the DMSO control group.

[2] = target: MAT2A recombinant protein (Homo sapiens, UniProt P31153); assay: MAT2A inhibitory activity (malachite green colorimetric enzyme assay); assay type: biochemical
Excerpt: MAT2A catalyzes the reaction of L-methionine and ATP to generate S-adenosylmethionine (SAM), inorganic phosphonic acid, and inorganic diphosphonic acid. Malachite green reacts with inorganic phosphonic acid to generate a green product, and the enzyme activity of MAT2A can be indirectly reflected by detecting the content of the inorganic phosphonic acid in a sample.
The test compounds were formulated using DMSO and diluted 1:3 diluted through 10 concentration points to give a final starting concentration in the reaction system of 1000 nM. The test compounds at different concentrations described above were transferred to a 384-well plate. Experimental buffer (50 mM HEPES pH 7.5, 50 mM KCl, 10 mM MgCl2, 10 mM DTT) was prepared. 2×MAT2A recombinant protein was prepared using the buffer and added to a 384-well plate. A mixed solution of 2×L-methionine and ATP was prepared using the buffer, and added to a 384-well plate. The enzymatic reaction was started, and the reaction was carried out at room temperature for 60 min. 20 μL of a colorimetric detection reagent was added to the above system, and incubated at room temperature for 15 min. The absorbance at 630 nm was measured. The inhibition rate of the compound on the enzyme activity was calculated, and the inhibition rate value and the logarithm value of the compound concentration were fitted using non-linear regression (dose response-variable slope) to give the IC50 value of the test compound.

[3] = test system: HCT116-MTAP-knockout (−/−) cell strain; assay: Tumor cell proliferation inhibition assay (CellTiter-Glo), HCT116-MTAP-knockout (-/-); assay type: cell-based; conditions: Homo sapiens, 120 h, HCT116-MTAP-knockout (−/−) cells, 5-day treatment; for IC50: IC50 score, read-out: Tumor cell 5-day relative growth inhibition (HCT116-MTAP−/−) (nM), score; for pIC50: IC50 value, read-out: Tumor cell 5-day relative growth inhibition (HCT116-MTAP−/−)
Description: (§1) After the HCT116-MTAP-knockout (−/−) cell strain, the HCT116-MTAP wild-type(+/+)-cell strain, the DOHH-2 cell strain, or the Hut-78 cell strain was treated with the test compound for 5 days, the ATP level was measured using a CellTiter-Glo kit of Promega to evaluate the inhibition of the test compound against the growth of the tumor cell strain.
(§2) In the present application, the HCT116-MTAP-knockout (−/−) cell strain, the HCT116-MTAP wild-type (+/+)-cell strain, the DOHH-2 cell strain, or the Hut-78 cell strain was seeded into a 96-well cell culture plate at an appropriate cell density. After 24 h, the cells were treated using the test compounds diluted 1:3 fold at the highest concentration of 10 μM for 10 gradients, and a DMSO treatment group was set up separately. The cells were cultured in a 37° C./5% CO2 incubator for 5 days.

[4] = test system: SDMA in HCT116-MTAP-knockout cell line; assay: Cell symmetric dimethylarginine (SDMA) test, In-cell Western, HCT116-MTAP-knockout; assay type: cell-based; conditions: Homo sapiens, 96 h
[5] = test system: HCT116-MTAP wild-type (+/+)-cell strain; assay: Tumor cell proliferation inhibition assay (CellTiter-Glo), HCT116-MTAP wild-type (+/+); assay type: cell-based; conditions: Homo sapiens, 120 h, HCT116-MTAP wild-type (+/+) cells, 5-day treatment; for IC50: IC50 score, read-out: Tumor cell 5-day relative growth inhibition (HCT116-MTAP+/+) (nM), score; for pIC50: IC50 value, read-out: Tumor cell 5-day relative growth inhibition (HCT116-MTAP+/+)
Description: as §1, §2

[6] = IC50 score class, read-out: Cell 96 h SDMA Inhibition (HCT116-MTAP+/+) (score)
[7] = read-out: Cell 96 h SDMA inhibition (HCT116-MTAP+/+)
[8] = IC50 score class, read-out: MAT2A Inhibition (score)
[9] = IC50 score class, read-out: Cell 96 h SDMA Inhibition (HCT116-MTAP−/−) (score)
[10] = read-out: Cell 96 h SDMA Inhibition (HCT116-MTAP−/−)

MAT2A recombinant protein, sequence (P31153 whole entry): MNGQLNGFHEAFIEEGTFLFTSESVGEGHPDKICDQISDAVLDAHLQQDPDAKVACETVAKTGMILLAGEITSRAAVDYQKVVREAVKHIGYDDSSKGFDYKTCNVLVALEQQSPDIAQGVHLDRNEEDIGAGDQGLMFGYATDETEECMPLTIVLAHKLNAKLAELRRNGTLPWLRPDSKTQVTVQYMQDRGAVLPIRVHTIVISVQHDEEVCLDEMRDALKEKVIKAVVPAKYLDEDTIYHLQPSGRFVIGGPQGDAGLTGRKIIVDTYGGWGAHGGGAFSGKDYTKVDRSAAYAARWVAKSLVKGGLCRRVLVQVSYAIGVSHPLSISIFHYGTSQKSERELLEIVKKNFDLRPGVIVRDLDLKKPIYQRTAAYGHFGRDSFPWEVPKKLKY

| pIC50 [1, 6] | pIC50 [1, 7] | pIC50 [2, 8] | pIC50 ([2]; read-out: MAT2A Inhibition) | IC50 [3] [nM] | pIC50 [3] | pIC50 [4, 9] | pIC50 [4, 10] | IC50 [5] [nM] | pIC50 [5] | SMILES |
| --- | --- | --- | --- | --- | --- | --- | --- | --- | --- | --- |
| < 5.52 | < 5.52 | > 7.00 | 7.21 | – | – | 6.00 to 6.70 | 6.09 | – | – | COc1cc2c3cn(C)nc3c(=O)n(-c3cccnc3)c2cc1Cl [Compound B171] |
| < 5.52 | 4.81 | > 7.00 | 7.30 | – | – | 5.52 to 6.00 | 5.84 | – | – | Cn1cc2c(n1)c(=O)n(-c1cncc(F)c1)c1nc(C(F)(F)F)ccc21 [Compound B202] |
| – | – | > 7.00 | 7.40 | – | – | – | – | – | – | COc1ccc(-n2cc3c(n2)c(=O)n(-c2ccccc2)c2nc(C(F)(F)F)ccc32)cn1 [Compound B231] |
| < 5.52 | < 5.52 | > 7.00 | 7.59 | – | – | 5.52 to 6.00 | 5.86 | – | – | Cn1cc2c(n1)c(=O)n(-c1cccc(C(N)=O)c1)c1nc(C(F)(F)F)ccc21 [Compound B234] |
| – | – | > 7.00 | 6.99 | – | – | – | – | – | – | Cn1cc2c(n1)c(=O)n(-c1cccnc1)c1nc(Cl)ccc21 [Compound B244] |
| – | – | – | – | < 500 | 6.45 | – | – | ≥ 2000 | < 5.00 | Cn1cc2c(n1)c(=O)n(-c1cccnc1C(F)(F)F)c1cc(Cl)c(F)cc21 [Compound B342] |
| – | – | < 6.00 | < 6.00 | – | – | – | – | – | – | Cn1cnc2c(=O)n(-c3cccc4ccccc34)c3cc(Cl)c(C#N)cc3c21 [Compound B378] |
| < 5.52 | < 5.00 | > 7.00 | 8.00 | – | – | > 6.70 | 8.28 | – | – | Cn1cc2c(n1)c(=O)n(-c1cccc3[nH]nc(F)c13)c1cc(Cl)c(F)cc21 [Compound B411] |
| < 5.52 | < 5.00 | > 7.00 | 8.19 | – | – | > 6.70 | 8.24 | – | – | Cn1cc2c(n1)c(=O)n(-c1cccc3[nH]nc(Cl)c13)c1cc(Cl)c(F)cc21 [Compound B412] |
| < 5.52 | < 5.00 | > 7.00 | 8.13 | – | – | > 6.70 | 8.04 | – | – | Cn1cc2c(n1)c(=O)n(-c1cccc3[nH]nc(Br)c13)c1cc(Cl)c(F)cc21 [Compound B413] |

Further lines, the compound ahead of its results:

| SMILES | pIC50 [1, 6] | pIC50 [1, 7] | pIC50 [2, 8] | pIC50 ([2]; read-out: MAT2A Inhibition) | IC50 [3] [nM] | pIC50 [3] | pIC50 [4, 9] | pIC50 [4, 10] | IC50 [5] [nM] | pIC50 [5] |
| --- | --- | --- | --- | --- | --- | --- | --- | --- | --- | --- |
| O=c1c2nn(C(F)F)cc2c2cc(F)c(Cl)cc2n1-c1cccnc1C1CC1 (single isomer, unassigned) [Compound B399] | < 5.52 | < 5.00 | – | – | – | – | – | – | – | – |
| CCn1cc2c(n1)c(=O)n(-c1ccccc1)c1cc(Cl)ccc21 [Compound B2] | – | – | 6.00 to 7.00 | 6.98 | ≥ 2000 | 5.55 | – | – | – | – |
| Cc1ncccc1-n1c(=O)c2nn(C)cc2c2ccc(C3CC3)nc21 [Compound B75] | 6.00 to 6.70 | 6.53 | > 7.00 | 7.36 | – | – | > 6.70 | 7.84 | – | – |
| Cn1cc2c(n1)c(=O)n(-c1cccnc1)c1cc(OC(F)(F)F)ccc21 [Compound B78] | 5.52 to 6.00 | 5.69 | – | – | – | – | 6.00 to 6.70 | 6.09 | – | – |
| Cn1cc2c(n1)c(=O)n(-c1cccnc1)c1cc(Cl)c(F)cc21 [Compound B139] | < 5.52 | 5.17 | > 7.00 | 7.43 | – | – | 6.00 to 6.70 | 6.11 | – | – |
| Cn1cc2c(n1)c(=O)n(-c1cccc(O)c1)c1cc(Cl)ccc21 [Compound B152] | < 5.52 | 4.76 | > 7.00 | 7.14 | – | – | 6.00 to 6.70 | 6.64 | – | – |
| Cn1cc2c(n1)c(=O)n(-c1cccnc1)c1cc(Cl)cc(F)c21 [Compound B172] | 5.52 to 6.00 | 5.66 | > 7.00 | 7.17 | – | – | 6.00 to 6.70 | 6.11 | – | – |
| Cn1cc2c(n1)c(=O)n(Cc1cn[nH]c1)c1cc(Cl)ccc21 [Compound B235] | < 5.52 | < 5.52 | 6.00 to 7.00 | 6.17 | – | – | < 5.52 | 5.37 | – | – |
| O=c1c2nn(C(F)F)cc2c2cc(F)c(Cl)cc2n1-c1cccc2[nH]ncc12 [Compound B260] | – | – | > 7.00 | 7.77 | < 500 | 7.16 | > 6.70 | 7.24 | – | – |
| Cn1cc2c(n1)c(=O)n(-c1cccc3[nH]ncc13)c1nc(C(F)(F)F)c(C#N)cc21 [Compound B281] | < 5.52 | < 5.00 | > 7.00 | 7.52 | – | – | > 6.70 | 7.60 | – | – |
| N#Cc1cc2c3cn(C(F)F)nc3c(=O)n(-c3cccc4[nH]ncc34)c2cc1Cl [Compound B283] | – | – | > 7.00 | 7.06 | – | – | – | – | – | – |
| COc1ccc(Cn2cc3c(n2)c(=O)n(-c2cccc4[nH]ncc24)c2cc(Cl)c(C#N)cc32)cc1 [Compound B286] | – | – | 6.00 to 7.00 | 6.73 | – | – | – | – | – | – |
| Cn1cc2c(n1)c(=O)n(-c1cccc3[nH]nc(Br)c13)c1cc(Cl)ccc21 [Compound B332] | < 5.52 | < 5.00 | > 7.00 | 7.41 | – | – | > 6.70 | 8.05 | – | – |
| O=c1c2nn(C(F)F)cc2c2cc(F)c(Cl)cc2n1-c1cccnc1C(F)(F)F [Compound B339] | < 5.52 | < 5.00 | – | – | – | – | 6.00 to 6.70 | 6.69 | – | – |
| Cn1cc2c(n1)c(=O)n(-c1cccnc1C1CC1)c1cc(Cl)c(C#N)cc21 [Compound B348] | – | – | – | – | ≥ 2000 | < 5.00 | – | – | ≥ 2000 | ≤ 5.00 |
| Cn1cnc2c(=O)n(-c3cccc4[nH]ncc34)c3cc(Cl)c(C#N)cc3c21 [Compound B375] | – | – | – | – | ≥ 2000 | < 5.00 | – | – | ≥ 2000 | < 5.00 |
| Cn1cnc2c(=O)n(-c3cccc4cccnc34)c3cc(Cl)c(C#N)cc3c21 [Compound B379] | – | – | < 6.00 | < 6.00 | – | – | – | – | – | – |
| Cn1cc2c(n1)c(=O)n(-c1cccc3[nH]ncc13)c1cc(C(F)(F)F)c(C#N)cc21 [Compound B391] | < 5.52 | < 5.00 | > 7.00 | 8.00 | – | – | > 6.70 | 7.96 | – | – |
